Patent US12448394B2, “Heterocyclic pyrazole derivatives as type III receptor tyrosine kinase inhibitors” (DEVELOPMENT CENTER FOR BIOTECHNOLOGY, priority 2019, dated 2025)

What was measured:
[1] = tested on: Molm-14 human acute myeloid leukemia cell with FLT3-ITD mutation; experiment: Molm-14 cell proliferation assay (CellTiter 96); type: cell-based; conditions: Homo sapiens; Molm-14 cells, 72 hours treatment, CellTiter96; read-out: anti-proliferation activity Molm-14 (FLT3-ITD), IC50 ranking
How it was run: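 Molm-14 (FLT3-ITD AML) cells in RPMI 1640 with 10% heat-inactivated FBS were seeded at 25000 cells/well, incubated overnight at 37° C, 5% CO2, then treated with increasing compound concentrations for 72 hours. Viability was read as absorbance at 490 nm after 2˜4 hours with CellTiter96 AQueous One reagent.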

MET kinase = molecular target: T1, MET kinase (Homo sapiens, UniProt P08581); experiment: MET kinase assay (AlphaScreen, counter screen); type: biochemical; conditions: read-out: Ranking of IC50 values, MET
T1 construct: purchased SignalChem
How it was run: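 Recombinant MET kinase (1 ng) phosphorylated biotinylated poly(Glu4:Tyr1) with […] ATP (so in the source) in MOPS pH 7.0 buffer with 10 mM MgCl2, 45 min at 30 °C, stopped with EDTA. Product read by AlphaScreen; IC50 from serial dilutions run in duplicate.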

FLT3-D835Y mutant kinase = molecular target: T2, FLT3-D835Y mutant kinase (Homo sapiens, UniProt P36888, D835Y); experiment: FLT3-D835Y mutant kinase assay (AlphaScreen); type: biochemical; conditions: read-out: Ranking of IC50 values, FLT3-D835Y
T2 construct: purchased SignalChem
T2 sequence (P36888 27-993 D835Y): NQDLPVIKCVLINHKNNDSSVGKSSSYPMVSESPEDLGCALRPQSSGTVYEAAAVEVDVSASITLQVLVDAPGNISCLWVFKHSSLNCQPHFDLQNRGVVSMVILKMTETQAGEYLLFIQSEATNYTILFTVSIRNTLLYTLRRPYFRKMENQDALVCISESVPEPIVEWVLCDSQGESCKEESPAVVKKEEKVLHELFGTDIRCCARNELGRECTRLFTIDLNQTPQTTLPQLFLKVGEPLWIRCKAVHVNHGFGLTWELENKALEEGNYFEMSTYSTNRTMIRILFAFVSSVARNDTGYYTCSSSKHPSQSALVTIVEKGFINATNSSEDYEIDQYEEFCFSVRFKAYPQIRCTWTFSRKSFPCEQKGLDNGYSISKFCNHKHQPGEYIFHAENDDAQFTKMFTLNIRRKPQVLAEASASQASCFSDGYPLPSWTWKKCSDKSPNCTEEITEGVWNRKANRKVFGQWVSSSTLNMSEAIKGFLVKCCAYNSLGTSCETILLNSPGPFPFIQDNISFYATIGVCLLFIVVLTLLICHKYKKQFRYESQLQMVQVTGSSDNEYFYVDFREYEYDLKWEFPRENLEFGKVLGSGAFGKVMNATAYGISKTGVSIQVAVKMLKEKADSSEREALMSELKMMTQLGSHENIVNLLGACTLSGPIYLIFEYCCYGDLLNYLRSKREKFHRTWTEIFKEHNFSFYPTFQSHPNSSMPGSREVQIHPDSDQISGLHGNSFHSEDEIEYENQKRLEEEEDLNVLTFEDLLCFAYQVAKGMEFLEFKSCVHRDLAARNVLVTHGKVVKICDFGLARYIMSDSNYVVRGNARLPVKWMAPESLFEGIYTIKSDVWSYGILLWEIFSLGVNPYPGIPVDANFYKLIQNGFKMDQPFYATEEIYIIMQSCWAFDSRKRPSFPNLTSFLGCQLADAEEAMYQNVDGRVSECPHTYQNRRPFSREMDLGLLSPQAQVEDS
How it was run: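 Recombinant FLT3-D835Y (1 ng) phosphorylated biotin-poly(Glu4:Tyr1) at 10 μM ATP, pH 7.0 MOPS buffer with 10 mM MgCl2, for 30 min at 30 °C, stopped with EDTA. Product was read by AlphaScreen. IC50 came from serial dilutions run in duplicate.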

T1 sequence (P08581 25-1390): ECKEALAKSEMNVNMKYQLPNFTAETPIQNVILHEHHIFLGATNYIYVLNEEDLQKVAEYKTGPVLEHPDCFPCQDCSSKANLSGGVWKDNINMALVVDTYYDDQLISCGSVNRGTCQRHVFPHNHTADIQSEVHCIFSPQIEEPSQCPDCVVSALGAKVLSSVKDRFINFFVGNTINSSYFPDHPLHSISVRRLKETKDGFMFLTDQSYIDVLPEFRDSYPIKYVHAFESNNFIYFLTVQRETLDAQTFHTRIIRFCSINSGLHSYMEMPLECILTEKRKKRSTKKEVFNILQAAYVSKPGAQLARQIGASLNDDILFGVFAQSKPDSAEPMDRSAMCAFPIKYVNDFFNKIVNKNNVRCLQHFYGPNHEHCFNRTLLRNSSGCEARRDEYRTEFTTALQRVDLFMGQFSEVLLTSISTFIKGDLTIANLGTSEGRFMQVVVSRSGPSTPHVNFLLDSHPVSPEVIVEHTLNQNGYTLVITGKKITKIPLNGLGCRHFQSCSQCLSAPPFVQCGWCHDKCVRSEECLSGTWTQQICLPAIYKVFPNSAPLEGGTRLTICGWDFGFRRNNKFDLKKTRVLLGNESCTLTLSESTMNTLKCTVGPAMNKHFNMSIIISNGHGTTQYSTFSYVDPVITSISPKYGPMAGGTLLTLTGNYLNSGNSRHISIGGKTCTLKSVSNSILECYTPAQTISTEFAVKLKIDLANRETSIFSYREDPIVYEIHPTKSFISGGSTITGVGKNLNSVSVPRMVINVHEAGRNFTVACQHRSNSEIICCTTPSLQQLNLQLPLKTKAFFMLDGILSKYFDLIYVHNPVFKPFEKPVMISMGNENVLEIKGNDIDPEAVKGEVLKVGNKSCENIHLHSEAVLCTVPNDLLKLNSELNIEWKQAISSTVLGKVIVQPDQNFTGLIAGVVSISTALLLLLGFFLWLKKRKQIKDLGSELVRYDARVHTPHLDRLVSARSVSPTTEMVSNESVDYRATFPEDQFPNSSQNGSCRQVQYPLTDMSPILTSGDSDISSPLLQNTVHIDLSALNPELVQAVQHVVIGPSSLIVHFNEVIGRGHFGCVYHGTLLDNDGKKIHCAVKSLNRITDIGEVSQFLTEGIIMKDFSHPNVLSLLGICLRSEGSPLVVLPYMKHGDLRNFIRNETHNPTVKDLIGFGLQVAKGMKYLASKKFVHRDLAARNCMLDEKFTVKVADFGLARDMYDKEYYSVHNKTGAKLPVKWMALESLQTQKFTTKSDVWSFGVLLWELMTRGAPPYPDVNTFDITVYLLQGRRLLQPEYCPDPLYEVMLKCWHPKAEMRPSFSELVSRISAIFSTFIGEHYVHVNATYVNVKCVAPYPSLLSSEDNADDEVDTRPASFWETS

SMILES | IC50 [1] [nM] | IC50 (MET kinase) [nM] | IC50 (FLT3-D835Y mutant kinase) [nM]
Cn1ncc2ccc(-c3n[nH]c4c3Cc3sc(-c5ccc(CN6CCCCC6=O)cc5)cc3-4)cc21 [Compound 61, 1-(4-(3-(l-methyl-1H-indazol-6-yl)-1,4-dihydro-thieno[2′,3′:4,5]cyclopenta [1,2-c]pyrazol-6-yl)benzyl)piperidin-2-one] | < 30 | > 1000 | < 1
Cn1ncc2ccc(-c3n[nH]c4c3Cc3sc(-c5ccc(CN6CCNC(=O)C6)cc5)cc3-4)cc21 [Compound 63, 4-(4-(3-(1-methyl-1H-indazol-6-yl)-1,4-dihydro-thieno[2′,3′:4,5]cyclopenta [1,2-c]pyrazol-6-yl)benzyl)piperazin-2-one] | < 30 | > 1000 | 1 to 10
CC1C(=O)N(C)CCN1Cc1ccc(-c2cc3c(s2)Cc2c(-c4ccc5cnn(C)c5c4)n[nH]c2-3)cc1 (stereo not drawn) [Compound 65, 1,3-dimethyl-4-(4-(3-(1-methyl-1H-indazol-6-yl)-1,4-dihydrothieno [2′,3′:4,5]cyclopenta [1,2-c]pyrazol-6-yl)benzyl)piperazin-2-one] | < 30 | > 1000 | < 1
Cn1ncc2ccc(-c3n[nH]c4c3Cc3sc(-c5ccc(CN6CCC(F)(F)C6)cc5)cc3-4)cc21 [Compound 67, 6-(4-((3,3-difluoro-pyrrolidin-1-yl)methyl)phenyl)-3-(1-methyl-1H-indazol-6-yl)-1,4-dihydro-thieno[2′,3′:4,5]cyclopenta [1,2-c]pyrazole] | 100 to 300 | > 1000 | 1 to 10
Cn1ncc2ccc(-c3n[nH]c4c3Cc3sc(C#CCN5CCOCC5)cc3-4)cc21 [Compound 71, 4-(3-(3-(1-methyl-1H-indazol-6-yl)-1,4-dihydro-thieno[2′,3′:4,5]cyclopenta [1,2-c]pyrazol-6-yl)prop-2-yn-1-yl)morpholine] | 30 to 100 | > 1000 | < 1
Cn1ncc2ccc(-c3n[nH]c4c3Cc3sc(-c5ccc(NC6CCOCC6)cc5)cc3-4)cc21 [Compound 72, N-(4-(3-(1-methyl-1H-indazol-6-yl)-1,4-dihydro-thieno[2′,3′:4,5]cyclopenta [1,2-c]pyrazol-6-yl)phenyl)tetrahydro-2H-pyran-4-amine] | 100 to 300 | > 1000 | 1 to 10
CN(c1ccc(-c2cc3c(s2)Cc2c(-c4ccc5cnn(C)c5c4)n[nH]c2-3)cc1)C1CCOCC1 [Compound 73, N-methyl-N-(4-(3-(1-methyl-1H-indazol-6-yl)-1,4-dihydrothieno [2′,3′:4,5]cyclopenta [1,2-c]pyrazol-6-yl)phenyl)tetrahydro-2H-pyran-4-amine] | 300 to 1000 | > 1000 | 1 to 10
C[C@H]1COCCN1Cc1ccc(-c2cc3c(s2)Cc2c(-c4ccc5cnn(C)c5c4)n[nH]c2-3)cc1 [Compound 75, (S)-3-methyl-4-(4-(3-(1-methyl-1H-indazol-6-yl)-1,4-dihydrothieno [2′,3′:4,5]cyclopenta [1,2-c]pyrazol-6-yl)benzyl)morpholine] | 30 to 100 | > 1000 | < 1
Cn1ncc2ccc(-c3n[nH]c4c3Cc3sc(-c5ccc(C=C6CCOCC6)cc5)cc3-4)cc21 [Compound 76, 3-(1-methyl-1H-indazol-6-yl)-6-(4-((tetrahydro-4H-pyran-4-ylidene)methyl)phenyl)-1,4-dihydrothieno[2′,3′:4,5] cyclopenta[1,2-c]pyrazole] | 300 to 1000 | > 1000 | 1 to 10
Cn1ncc2ccc(-c3n[nH]c4c3Cc3sc(-c5ccc(CC6CCOCC6)cc5)cc3-4)cc21 [Compound 77, 3-(1-methyl-1H-indazol-6-yl)-6-(4-((tetrahydro-2H-pyran-4-yl)methyl)phenyl)-1,4-dihydrothieno [2′,3′:4,5]cyclopenta [1,2-c]pyrazole] | 100 to 300 | > 1000 | 1 to 10

Other lines, results leading:

IC50 [1] [nM] | IC50 (MET kinase) [nM] | IC50 (FLT3-D835Y mutant kinase) [nM] | SMILES
< 30 | > 1000 | < 1 | Cn1ncc2ccc(-c3n[nH]c4c3Cc3sc(-c5ccc(CN6CCOCC6=O)cc5)cc3-4)cc21 [Compound 59, 4-(4-(3-(1-methyl-1H-indazol-6-yl)-1,4-dihydro-thieno[2′,3′:4,5]cyclopenta [1,2-c]pyrazol-6-yl)benzyl)morpholin-3-one]
< 30 | > 1000 | < 1 | Cn1ncc2ccc(-c3n[nH]c4c3Cc3sc(-c5csc(C(=O)N6CCOCC6)n5)cc3-4)cc21 [Compound 60, (4-(3-(1-methyl-1H-indazol-6-yl)-1,4-dihydro-thieno[2′,3′:4,5]cyclopenta [1,2-c]pyrazol-6-yl)thiazol-2-yl)(morpholino) methanone]
< 30 | > 1000 | 1 to 10 | Cn1ncc2ccc(-c3n[nH]c4c3Cc3sc(-c5ccc(CN6CCCC6=O)cc5)cc3-4)cc21 [Compound 64, 1-(4-(3-(1-methyl-1H-indazol-6-yl)-1,4-dihydro-thieno[2′,3′:4,5]cyclopenta [1,2-c]pyrazol-6-yl)benzyl)pyrrolidin-2-one]
< 30 | > 1000 | < 1 | Cn1ncc2ccc(-c3n[nH]c4c3Cc3sc(-c5ccc(CCN6CCOCC6=O)cc5)cc3-4)cc21 [Compound 66, 4-(4-(3-(1-methyl-1H-indazol-6-yl)-1,4-dihydro-thieno[2′,3′:4,5]cyclopenta [1,2-c]pyrazol-6-yl)phenethyl)morpholin-3-one]
30 to 100 | > 1000 | < 1 | Cn1ncc2ccc(-c3n[nH]c4c3Cc3sc(-c5ccc(OCCN6CCOCC6)cc5)cc3-4)cc21 [Compound 69, 4-(2-(4-(3-(1-methyl-1H-indazol-6-yl)-1,4-dihydro-thieno[2′,3′:4,5]cyclopenta [1,2-c]pyrazol-6-yl)phenoxy)ethyl)morpholine]
100 to 300 | > 1000 | < 1 | Cn1ncc2ccc(-c3n[nH]c4c3Cc3sc(-c5cccc(OCCN6CCOCC6)c5)cc3-4)cc21 [Compound 70, 4-(2-(3-(3-(1-methyl-1H-indazol-6-yl)-1,4-dihydro-thieno[2′,3′:4,5]cyclopenta [1,2-c]pyrazol-6-yl)phenoxy)ethyl)morpholine]
30 to 100 | > 1000 | < 1 | C[C@@H]1COCCN1Cc1ccc(-c2cc3c(s2)Cc2c(-c4ccc5cnn(C)c5c4)n[nH]c2-3)cc1 [Compound 74, (R)-3-methyl-4-(4-(3-(1-methyl-1H-indazol-6-yl)-1,4-dihydrothieno [2′,3′:4,5]cyclopenta [1,2-c]pyrazol-6-yl)benzyl)morpholine]
< 30 | > 1000 | < 1 | Cn1ncc2ccc(-c3n[nH]c4c3Cc3sc(N5CCOCC5)cc3-4)cc21 [Compound 78, 4-(3-(1-methyl-1H-indazol-6-yl)-1,4-dihydro-thieno[2′,3′:4,5]cyclopenta [1,2-c]pyrazol-6-yl) morpholine]
< 30 | > 1000 | < 1 | Cn1ncc2ccc(-c3n[nH]c4c3Cc3sc(N5CCOCC5=O)cc3-4)cc21 [Compound 79, 4-(3-(1-methyl-1H-indazol-6-yl)-1,4-dihydro-thieno[2′,3′:4,5]cyclopenta [1,2-c]pyrazol-6-yl) morpholin-3-one]
< 30 | 300 to 1000 | < 1 | Cn1ncc2ccc(-c3n[nH]c4c3Cc3sc(-c5ccc(CN6CCC(N7CCOCC7)CC6)cc5)cc3-4)cc21 [Compound 80, 4-(1-(4-(3-(1-methyl-1H-indazol-6-yl)-1,4-dihydro-thieno[2′,3′:4,5]cyclopenta [1,2-c]pyrazol-6-yl)benzyl)piperidin-4-yl) morpholine]
